From ChEMBL document CHEMBL3885861, “Open TG-GATES”

Organism: Rattus norvegicus
Assay: Open TG-GATES - Regimen: Daily Repeat
Type: toxicity, organism-based, Sprague-Dawley
Set-up: regimen Daily Repeat, gender Male, age 6 weeks
Conditions: in vivo, po, route gavage; for APTT / Bas / Eos / Fbg / Hb / Ht / Lym / MCH / MCHC / MCV / Mono / Neu / PT / Plat / RBC / Ret / WBC: tissue Blood; for KIDNEY_L / KIDNEY_R / KIDNEY_TOTAL: tissue Kidney; for LIVER: tissue Liver; for A/G / ALP / ALT / AST / BUN / CRE / Ca / Cl / DBIL / GLC / IP / K / LDH / Na / PL / RALB / TBIL / TC / TG / TP / gamma-GTP: tissue Plasma
[1] = 0 mg/kg, 72 h, dose level Control, time 3 day
[2] = 0 mg/kg, […], dose level Control, time 7 day
[3] = 0 mg/kg, […], dose level Control, time 14 day
[4] = 0 mg/kg, […], dose level Control, time 28 day
[5] = 100 mg/kg, 72 h, dose level Low, time 3 day
[6] = 100 mg/kg, […], dose level Low, time 7 day
[7] = 100 mg/kg, […], dose level Low, time 14 day
[8] = 100 mg/kg, […], dose level Low, time 28 day

## COc1ccc(Cl)cc1C(=O)NCCc1ccc(S(=O)(=O)NC(=O)NC2CCCCC2)cc1 [GLYBURIDE]
[1]
  TERMINAL_BW: 234.5 g
  APTT: 19.1 s
  Bas: 0%
  Eos: 0.8%
  Fbg: 225.4 mg/dL
  Hb: 13.3 g/dL
  Ht: 39.9%
  Lym: 81.6%
  MCH: 21.1 pg
  MCHC: 33.2%
  MCV: 63.5 fL
  Mono: 2.6%
  Neu: 14.6%
  PT: 12.1 s
  Plat: 124.6 x10_4/uL
  RBC: 628.4 x10_4/ul
  Ret: 6.8%
  WBC: 86.4 x10_2/uL
  KIDNEY_L: 1 g
  KIDNEY_R: 1 g
  KIDNEY_TOTAL: 2 g
  LIVER: 11.7 g
  A/G: 1.7
  ALP: 939.6 IU/L
  ALT: 43.2 IU/L
  AST: 66.4 IU/L
  BUN: 15.2 mg/dL
  CRE: 0.4 mg/dL
  Ca: 10.9 mg/dL
  Cl: 102.4 meq/L
  DBIL: 0.1 mg/dL
  GLC: 207 mg/dL
  IP: 7.4 mg/dL
  K: 4.2 meq/L
  LDH: 159.2 IU/L
  Na: 141 meq/L
  PL: 160.2 mg/dL
  RALB: 3.5 g/dL
  TBIL: 0.2 mg/dL
  TC: 86 mg/dL
  TG: 92.6 mg/dL
  TP: 5.6 g/dL
  gamma-GTP: 1.4 IU/L
[2]
  TERMINAL_BW: 268.9 g
  APTT: 18.2 s
  Bas: 0%
  Eos: 0.8%
  Fbg: 217.8 mg/dL
  Hb: 13.7 g/dL
  Ht: 40.6%
  Lym: 79.8%
  MCH: 21.2 pg
  MCHC: 33.7%
  MCV: 63 fL
  Mono: 2.8%
  Neu: 16.2%
  PT: 12.4 s
  Plat: 121.3 x10_4/uL
  RBC: 644.2 x10_4/ul
  Ret: 5.5%
  WBC: 115 x10_2/uL
  KIDNEY_L: 1.2 g
  KIDNEY_R: 1.2 g
  KIDNEY_TOTAL: 2.3 g
  LIVER: 12.7 g
  A/G: 1.5
  ALP: 926.8 IU/L
  ALT: 36.6 IU/L
  AST: 59.8 IU/L
  BUN: 16.8 mg/dL
  CRE: 0.4 mg/dL
  Ca: 10.8 mg/dL
  Cl: 102.8 meq/L
  DBIL: 0.1 mg/dL
  GLC: 217 mg/dL
  IP: 7.3 mg/dL
  K: 3.9 meq/L
  LDH: 129.6 IU/L
  Na: 141.6 meq/L
  PL: 152 mg/dL
  RALB: 3.3 g/dL
  TBIL: 0.2 mg/dL
  TC: 71.6 mg/dL
  TG: 128.2 mg/dL
  TP: 5.5 g/dL
  gamma-GTP: 1 IU/L
[3]
  TERMINAL_BW: 320.1 g
  APTT: 21.1 s
  Bas: 0%
  Eos: 0.6%
  Fbg: 223.6 mg/dL
  Hb: 14.1 g/dL
  Ht: 41%
  Lym: 79.8%
  MCH: 20.1 pg
  MCHC: 34.3%
  MCV: 58.5 fL
  Mono: 2.6%
  Neu: 16.4%
  PT: 12.2 s
  Plat: 122.3 x10_4/uL
  RBC: 701 x10_4/ul
  Ret: 4.3%
  WBC: 124.8 x10_2/uL
  KIDNEY_L: 1.2 g
  KIDNEY_R: 1.3 g
  KIDNEY_TOTAL: 2.5 g
  LIVER: 14 g
  A/G: 1.5
  ALP: 785.6 IU/L
  ALT: 36.2 IU/L
  AST: 62.6 IU/L
  BUN: 14 mg/dL
  CRE: 0.5 mg/dL
  Ca: 10.7 mg/dL
  Cl: 102.6 meq/L
  DBIL: 0.1 mg/dL
  GLC: 199.8 mg/dL
  IP: 6.6 mg/dL
  K: 4 meq/L
  LDH: 154.6 IU/L
  Na: 140.4 meq/L
  PL: 155.2 mg/dL
  RALB: 3.6 g/dL
  TBIL: 0.2 mg/dL
  TC: 74.6 mg/dL
  TG: 104.8 mg/dL
  TP: 6 g/dL
  gamma-GTP: 1.2 IU/L
[4]
  TERMINAL_BW: 406.6 g
  APTT: 19.9 s
  Bas: 0%
  Eos: 1%
  Fbg: 211 mg/dL
  Hb: 15.1 g/dL
  Ht: 43.1%
  Lym: 83.8%
  MCH: 20.1 pg
  MCHC: 35.1%
  MCV: 57.2 fL
  Mono: 2%
  Neu: 12.8%
  PT: 12.3 s
  Plat: 100.6 x10_4/uL
  RBC: 753.2 x10_4/ul
  Ret: 2.8%
  WBC: 133.4 x10_2/uL
  KIDNEY_L: 1.3 g
  KIDNEY_R: 1.4 g
  KIDNEY_TOTAL: 2.7 g
  LIVER: 17.3 g
  A/G: 1.5
  ALP: 561.8 IU/L
  ALT: 31.4 IU/L
  AST: 60 IU/L
  BUN: 16.8 mg/dL
  CRE: 0.5 mg/dL
  Ca: 10.5 mg/dL
  Cl: 103.8 meq/L
  DBIL: 0.1 mg/dL
  GLC: 214 mg/dL
  IP: 6.6 mg/dL
  K: 3.9 meq/L
  LDH: 143.2 IU/L
  Na: 141.2 meq/L
  PL: 143.8 mg/dL
  RALB: 3.5 g/dL
  TBIL: 0.2 mg/dL
  TC: 75.4 mg/dL
  TG: 91.2 mg/dL
  TP: 5.9 g/dL
  gamma-GTP: 0.8 IU/L
[5]
  TERMINAL_BW: 227.4 g
  APTT: 20.1 s
  Bas: 0%
  Eos: 1%
  Fbg: 222.4 mg/dL
  Hb: 13.6 g/dL
  Ht: 40.3%
  Lym: 83%
  MCH: 21.4 pg
  MCHC: 33.6%
  MCV: 63.7 fL
  Mono: 2.6%
  Neu: 12.8%
  PT: 12.2 s
  Plat: 115.5 x10_4/uL
  RBC: 632.6 x10_4/ul
  Ret: 5.2%
  WBC: 104.4 x10_2/uL
  KIDNEY_L: 1 g
  KIDNEY_R: 1 g
  KIDNEY_TOTAL: 1.9 g
  LIVER: 10.6 g
  A/G: 1.7
  ALP: 952 IU/L
  ALT: 42 IU/L
  AST: 65.4 IU/L
  BUN: 15 mg/dL
  CRE: 0.4 mg/dL
  Ca: 10.9 mg/dL
  Cl: 103 meq/L
  DBIL: 0.1 mg/dL
  GLC: 187.8 mg/dL
  IP: 6.9 mg/dL
  K: 3.8 meq/L
  LDH: 183.6 IU/L
  Na: 141.6 meq/L
  PL: 153.8 mg/dL
  RALB: 3.5 g/dL
  TBIL: 0.1 mg/dL
  TC: 75.4 mg/dL
  TG: 113 mg/dL
  TP: 5.6 g/dL
  gamma-GTP: 1.4 IU/L
[6]
  TERMINAL_BW: 265.1 g
  APTT: 19.7 s
  Bas: 0.2%
  Eos: 0.8%
  Fbg: 223 mg/dL
  Hb: 13 g/dL
  Ht: 38.5%
  Lym: 79.4%
  MCH: 21 pg
  MCHC: 33.7%
  MCV: 62.3 fL
  Mono: 3%
  Neu: 16.4%
  PT: 12.5 s
  Plat: 124.6 x10_4/uL
  RBC: 618 x10_4/ul
  Ret: 5.6%
  WBC: 123.7 x10_2/uL
  KIDNEY_L: 1.1 g
  KIDNEY_R: 1.1 g
  KIDNEY_TOTAL: 2.2 g
  LIVER: 12.7 g
  A/G: 1.5
  ALP: 816.2 IU/L
  ALT: 35.2 IU/L
  AST: 60.2 IU/L
  BUN: 15.8 mg/dL
  CRE: 0.4 mg/dL
  Ca: 11 mg/dL
  Cl: 102.4 meq/L
  DBIL: 0.1 mg/dL
  GLC: 196 mg/dL
  IP: 7.3 mg/dL
  K: 4.1 meq/L
  LDH: 155.2 IU/L
  Na: 140.6 meq/L
  PL: 151.8 mg/dL
  RALB: 3.4 g/dL
  TBIL: 0.2 mg/dL
  TC: 78.4 mg/dL
  TG: 116.4 mg/dL
  TP: 5.7 g/dL
  gamma-GTP: 1.2 IU/L
[7]
  TERMINAL_BW: 301.6 g
  APTT: 19.3 s
  Bas: 0%
  Eos: 1%
  Fbg: 224.6 mg/dL
  Hb: 14.3 g/dL
  Ht: 40.2%
  Lym: 78%
  MCH: 21 pg
  MCHC: 35.6%
  MCV: 59.2 fL
  Mono: 2.2%
  Neu: 17.8%
  PT: 12.3 s
  Plat: 122 x10_4/uL
  RBC: 679.6 x10_4/ul
  Ret: 3.9%
  WBC: 137.4 x10_2/uL
  KIDNEY_L: 1.1 g
  KIDNEY_R: 1.2 g
  KIDNEY_TOTAL: 2.3 g
  LIVER: 13 g
  A/G: 1.4
  ALP: 1042 IU/L
  ALT: 37 IU/L
  AST: 63.6 IU/L
  BUN: 15.2 mg/dL
  CRE: 0.5 mg/dL
  Ca: 10.7 mg/dL
  Cl: 102.2 meq/L
  DBIL: 0.1 mg/dL
  GLC: 193.2 mg/dL
  IP: 6.4 mg/dL
  K: 3.9 meq/L
  LDH: 138.2 IU/L
  Na: 140.2 meq/L
  PL: 166.4 mg/dL
  RALB: 3.5 g/dL
  TBIL: 0.2 mg/dL
  TC: 81.2 mg/dL
  TG: 116.8 mg/dL
  TP: 6 g/dL
  gamma-GTP: 0.6 IU/L
[8]
  TERMINAL_BW: 376.3 g
  APTT: 23 s
  Bas: 0%
  Eos: 0.8%
  Fbg: 207.8 mg/dL
  Hb: 15.2 g/dL
  Ht: 43.5%
  Lym: 82.6%
  MCH: 19.3 pg
  MCHC: 34.9%
  MCV: 55.4 fL
  Mono: 2.4%
  Neu: 13.4%
  PT: 12.7 s
  Plat: 105.5 x10_4/uL
  RBC: 786.4 x10_4/ul
  Ret: 2.6%
  WBC: 115.6 x10_2/uL
  KIDNEY_L: 1.3 g
  KIDNEY_R: 1.3 g
  KIDNEY_TOTAL: 2.6 g
  LIVER: 15.8 g
  A/G: 1.4
  ALP: 594 IU/L
  ALT: 33.6 IU/L
  AST: 58.4 IU/L
  BUN: 14.6 mg/dL
  CRE: 0.5 mg/dL
  Ca: 10.4 mg/dL
  Cl: 103.6 meq/L
  DBIL: 0.09 mg/dL
  GLC: 213.6 mg/dL
  IP: 6.4 mg/dL
  K: 3.9 meq/L
  LDH: 147 IU/L
  Na: 141 meq/L
  PL: 137.4 mg/dL
  RALB: 3.4 g/dL
  TBIL: 0.2 mg/dL
  TC: 69 mg/dL
  TG: 98.8 mg/dL
  TP: 5.8 g/dL
  gamma-GTP: 1.4 IU/L
